In brackets after ≈: the same amount, converted by molar mass.
How the values were obtained:
Plasma = test: Anticoagulant activity in human plasma assessed as activated partial thromboplastin time; format: functional
[1] = Metabolic stability in human liver microsomes assessed as half life; format: ADME, Microsome
[2] = Fraction unbound in human plasma; format: ADME, cell-free
[3] = Aqueous solubility of the compound at pH 6.5; format: physicochemical; conditions: aqueous medium
[4] = Aqueous solubility of the compound at pH 1.0; format: physicochemical; conditions: aqueous medium
Coagulation factor XI = Coagulation factor XI (Homo sapiens, UniProt P03951); test: Binding affinity to human coagulation factor 11a using L-Pyroglutamyl-L-prolyl-L-arginine p-Nitroaniline as substrate assessed as inhibition constant measured upto 120 mins by spectrophotometric analysis
Coagulation factor XI, sequence (P03951 19-387 limits assumed): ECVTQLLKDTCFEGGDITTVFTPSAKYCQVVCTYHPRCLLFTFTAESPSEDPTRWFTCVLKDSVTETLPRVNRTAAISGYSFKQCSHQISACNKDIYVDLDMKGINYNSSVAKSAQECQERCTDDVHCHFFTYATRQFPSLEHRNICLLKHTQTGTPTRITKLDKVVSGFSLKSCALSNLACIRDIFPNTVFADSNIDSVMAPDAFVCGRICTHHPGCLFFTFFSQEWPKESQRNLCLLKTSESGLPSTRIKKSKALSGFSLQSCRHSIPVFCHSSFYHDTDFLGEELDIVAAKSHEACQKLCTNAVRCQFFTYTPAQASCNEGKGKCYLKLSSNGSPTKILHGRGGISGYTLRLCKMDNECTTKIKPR
Coagulation factor XI, sequence (P03951 388-625 limits assumed): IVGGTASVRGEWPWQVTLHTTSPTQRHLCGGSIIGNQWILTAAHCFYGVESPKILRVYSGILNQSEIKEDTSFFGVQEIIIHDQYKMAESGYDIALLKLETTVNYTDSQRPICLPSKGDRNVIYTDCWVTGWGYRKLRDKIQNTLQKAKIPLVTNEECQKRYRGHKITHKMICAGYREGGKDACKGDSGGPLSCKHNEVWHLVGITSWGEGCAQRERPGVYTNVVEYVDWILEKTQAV

Oryctolagus cuniculus = test: Antithrombotic activity in New Zealand White rabbit model of electrically-induced carotid artery thrombosis assessed as inhibition of thrombosis formation by measuring increase in bleeding time administered as iv bolus dose and subsequently administered as iv infusion 30 mins prior to injury; format: functional, organism-based

SMILES	EC1.5 (Plasma)	half-life [1]	Ki (Coagulation factor XI)	other results
C[C@@H]1CCC[C@H](N2CCC(c3cc(Cl)ccc3-n3ccnn3)=CC2=O)c2cc(ccn2)-c2c(cnn2C)NC1=O	0.36 µM	1.13 h		
C[C@@H]1CCC[C@H](N2CCC(c3c(F)ccc(Cl)c3F)=CC2=O)c2cc(ccn2)-c2c(cnn2C)NC1=O				fraction unbound [2]: 0.007; solubility [3]: 0.15 µg/mL (≈ 0.285 µM); solubility [4]: 3 µg/mL (≈ 5.7 µM)
C[C@@H]1CCC[C@H](N2CCC(c3c(F)ccc(Cl)c3F)=CC2=O)c2cc(ccn2)-c2[nH]ncc2NC1=O			548 nM	
C[C@@H]1CCC[C@H](N2CCC(c3cc(Cl)ccc3-n3cc(Cl)nn3)=CC2=O)c2cc(ccn2)-c2c(cnn2C)NC1=O	0.3 µM	1.08 h		
C[C@@H]1CCC[C@H](N2CCC(c3c(F)ccc(Cl)c3F)=CC2=O)c2cc(ccn2)-c2cn[nH]c2NC1=O			330 nM	
C[C@@H]1CCC[C@H](N2CCC(c3cc(Cl)ccc3-n3ccnn3)=CC2=O)c2cc(ccn2)-c2c(cnn2C2CC2)NC1=O	0.49 µM	0.0833 h	1.1 nM	
C[C@@H]1CCC[C@H](n2cnc(-c3cc(Cl)ccc3-n3cc(Cl)nn3)cc2=O)c2cc(ccn2)-c2c(cnn2C)NC1=O	0.3 µM	1.93 h		
C[C@@H]1CCC[C@H](N2CCC(c3cc(Cl)ccc3-n3ccnc3)=CC2=O)c2cc(ccn2)-c2c(cnn2C)NC1=O	0.6 µM		2.7 nM	
COC(=O)Nc1ccc2c(c1)NC(=O)[C@H](C)CCC[C@H](N1CCC(c3c(F)ccc(Cl)c3F)=CC1=O)c1cc-2ccn1				EC50 (Oryctolagus cuniculus): 375 nM

From ChEMBL document CHEMBL5038606 (J Med Chem, 2022)
